In ChEMBL document CHEMBL5465560, “Selectivity Literature for EUbOPEN Chemogenomic Library” (2024):

Assays:
[1] = molecular target: Serine/threonine-protein kinase Nek4 (Homo sapiens) (UniProt P51957); settings: at 10 µM
[2] = molecular target: Proto-oncogene tyrosine-protein kinase Src (Homo sapiens, UniProt P12931); assay: Selectivity interaction (Ambit KINOMEscan and KiNATiv profiling in Jurkat cells) EUB0000090b SRC; type: cell-based; settings: at 1 µM
[3] = test system: Tyrosine-protein kinase ABL1 (Homo sapiens), P00519 [F317I]; assay: Selectivity interaction (Ambit KINOMEscan and KiNATiv profiling in Jurkat cells) EUB0000090b ABL1; type: cell-based; settings: at 1 µM
[4] = molecular target: Fibroblast growth factor receptor 3 (Homo sapiens, UniProt P22607); assay: (§1) Selectivity interaction (KinomeScan (DiscoverX)) EUB0000229b FGFR3; settings: at 10 µM
[5] = test system: Fibroblast growth factor receptor 3 (Homo sapiens), P22607 [G697C]; assay: as §1; settings: at 1 µM
[6] = molecular target: Serine/threonine-protein kinase 38 (Homo sapiens) (UniProt Q15208); assay: Selectivity interaction (KinomeScan (DiscoverX)) EUB0001079a STK38; settings: at 1 µM
[7] = test system: Epidermal growth factor receptor (Homo sapiens), P00533 [UNDEFINED MUTATION]; assay: Selectivity interaction (ProQinase) EUB0000171b EGFR; settings: at 5 µM
[8] = molecular target: T1, Phosphatidylinositol 5-phosphate 4-kinase type-2 beta (Homo sapiens) (UniProt P78356); assay: Selectivity interaction (KinomeScan (DiscoverX)) EUB0000092b PIP4K2B; settings: at 10 µM
T1 sequence (whole entry): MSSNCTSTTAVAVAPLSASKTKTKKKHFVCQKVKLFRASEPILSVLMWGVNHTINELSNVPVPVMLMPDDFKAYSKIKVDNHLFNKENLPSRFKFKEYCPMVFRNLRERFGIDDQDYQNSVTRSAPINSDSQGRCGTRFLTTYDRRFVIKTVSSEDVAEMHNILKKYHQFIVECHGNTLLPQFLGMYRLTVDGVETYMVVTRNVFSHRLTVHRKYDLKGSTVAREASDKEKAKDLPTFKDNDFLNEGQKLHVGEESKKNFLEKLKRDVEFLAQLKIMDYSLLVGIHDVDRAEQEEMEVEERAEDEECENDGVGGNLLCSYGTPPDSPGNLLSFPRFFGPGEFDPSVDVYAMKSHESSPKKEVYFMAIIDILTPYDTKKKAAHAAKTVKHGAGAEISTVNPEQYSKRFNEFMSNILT

[9] = molecular target: T2, Serine/threonine-protein kinase RIO3 (Homo sapiens) (UniProt O14730); assay: Selectivity interaction (KinomeScan (DiscoverX)) EUB0000655a RIOK3; settings: at 10 µM
T2 sequence (whole entry): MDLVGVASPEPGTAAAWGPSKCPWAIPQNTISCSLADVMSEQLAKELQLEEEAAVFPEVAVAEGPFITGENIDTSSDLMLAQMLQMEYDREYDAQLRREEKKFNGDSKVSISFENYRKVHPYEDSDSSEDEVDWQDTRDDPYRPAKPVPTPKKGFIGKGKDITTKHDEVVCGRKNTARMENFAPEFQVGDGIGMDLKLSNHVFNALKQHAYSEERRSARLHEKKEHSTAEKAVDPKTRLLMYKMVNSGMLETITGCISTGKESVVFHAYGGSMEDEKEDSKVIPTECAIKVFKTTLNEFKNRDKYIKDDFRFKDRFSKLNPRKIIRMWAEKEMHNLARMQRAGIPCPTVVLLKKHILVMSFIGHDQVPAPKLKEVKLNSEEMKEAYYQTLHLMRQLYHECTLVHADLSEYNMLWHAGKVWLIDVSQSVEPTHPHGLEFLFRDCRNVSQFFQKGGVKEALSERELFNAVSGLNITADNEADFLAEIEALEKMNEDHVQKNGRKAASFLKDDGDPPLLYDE

[10] = molecular target: Interferon-induced, double-stranded RNA-activated protein kinase (Homo sapiens) (UniProt P19525); assay: Selectivity interaction (KinomeScan (DiscoverX)) EUB0000655a EIF2AK2; settings: at 10 µM
[11] = molecular target: Microtubule-associated serine/threonine-protein kinase 1 (Homo sapiens) (UniProt Q9Y2H9); assay: Selectivity interaction (KinomeScan (DiscoverX)) EUB0001619a MAST1; settings: at 1 µM
[12] = molecular target: Serine/threonine-protein kinase OSR1 (Homo sapiens) (UniProt O95747); assay: Selectivity interaction (KinomeScan (DiscoverX)) EUB0000607a OXSR1; settings: at 10 µM
[13] = molecular target: T3, Ankyrin repeat and protein kinase domain-containing protein 1 (Homo sapiens) (UniProt Q8NFD2); assay: Selectivity interaction (KinomeScan (DiscoverX)) EUB0000666a ANKK1; settings: at 10 µM
T3 sequence (whole entry): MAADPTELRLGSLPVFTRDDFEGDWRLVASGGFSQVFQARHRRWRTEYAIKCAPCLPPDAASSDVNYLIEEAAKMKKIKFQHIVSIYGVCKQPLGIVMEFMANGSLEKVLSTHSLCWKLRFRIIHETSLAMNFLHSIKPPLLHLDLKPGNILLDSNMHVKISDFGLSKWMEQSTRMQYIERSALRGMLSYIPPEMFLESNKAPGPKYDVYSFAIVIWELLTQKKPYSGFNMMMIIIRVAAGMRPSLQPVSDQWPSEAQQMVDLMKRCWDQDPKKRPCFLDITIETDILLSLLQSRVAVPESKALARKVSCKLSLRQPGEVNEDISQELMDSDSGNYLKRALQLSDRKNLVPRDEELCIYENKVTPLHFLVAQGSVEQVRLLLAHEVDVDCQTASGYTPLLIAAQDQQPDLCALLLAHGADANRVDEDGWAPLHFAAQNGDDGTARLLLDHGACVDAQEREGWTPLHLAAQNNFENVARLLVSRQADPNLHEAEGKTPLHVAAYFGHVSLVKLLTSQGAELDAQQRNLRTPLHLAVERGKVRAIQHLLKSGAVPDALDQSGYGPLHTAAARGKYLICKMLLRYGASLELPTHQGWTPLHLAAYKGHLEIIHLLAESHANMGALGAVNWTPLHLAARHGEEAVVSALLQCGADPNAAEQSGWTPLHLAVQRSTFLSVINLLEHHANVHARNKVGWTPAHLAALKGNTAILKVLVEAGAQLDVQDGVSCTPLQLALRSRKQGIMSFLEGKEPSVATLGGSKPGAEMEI

Chain of Serine/threonine-protein kinase OSR1 (Homo sapiens) (O95747 2-527 limits assumed): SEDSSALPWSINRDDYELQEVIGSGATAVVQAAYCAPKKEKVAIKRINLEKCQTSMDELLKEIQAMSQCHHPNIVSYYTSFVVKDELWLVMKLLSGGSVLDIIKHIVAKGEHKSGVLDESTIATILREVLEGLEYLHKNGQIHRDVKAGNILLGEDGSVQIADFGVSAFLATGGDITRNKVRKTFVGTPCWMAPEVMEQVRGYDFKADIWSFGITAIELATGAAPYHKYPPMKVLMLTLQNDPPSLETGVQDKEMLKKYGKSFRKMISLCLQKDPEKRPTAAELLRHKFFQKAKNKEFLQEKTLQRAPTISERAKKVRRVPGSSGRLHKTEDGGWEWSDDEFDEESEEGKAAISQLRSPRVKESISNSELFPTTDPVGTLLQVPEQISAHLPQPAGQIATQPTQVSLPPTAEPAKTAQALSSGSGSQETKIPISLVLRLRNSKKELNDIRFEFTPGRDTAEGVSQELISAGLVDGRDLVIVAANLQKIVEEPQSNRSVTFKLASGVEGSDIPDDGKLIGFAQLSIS
Chain of Fibroblast growth factor receptor 3 (P22607 23-806 limits assumed): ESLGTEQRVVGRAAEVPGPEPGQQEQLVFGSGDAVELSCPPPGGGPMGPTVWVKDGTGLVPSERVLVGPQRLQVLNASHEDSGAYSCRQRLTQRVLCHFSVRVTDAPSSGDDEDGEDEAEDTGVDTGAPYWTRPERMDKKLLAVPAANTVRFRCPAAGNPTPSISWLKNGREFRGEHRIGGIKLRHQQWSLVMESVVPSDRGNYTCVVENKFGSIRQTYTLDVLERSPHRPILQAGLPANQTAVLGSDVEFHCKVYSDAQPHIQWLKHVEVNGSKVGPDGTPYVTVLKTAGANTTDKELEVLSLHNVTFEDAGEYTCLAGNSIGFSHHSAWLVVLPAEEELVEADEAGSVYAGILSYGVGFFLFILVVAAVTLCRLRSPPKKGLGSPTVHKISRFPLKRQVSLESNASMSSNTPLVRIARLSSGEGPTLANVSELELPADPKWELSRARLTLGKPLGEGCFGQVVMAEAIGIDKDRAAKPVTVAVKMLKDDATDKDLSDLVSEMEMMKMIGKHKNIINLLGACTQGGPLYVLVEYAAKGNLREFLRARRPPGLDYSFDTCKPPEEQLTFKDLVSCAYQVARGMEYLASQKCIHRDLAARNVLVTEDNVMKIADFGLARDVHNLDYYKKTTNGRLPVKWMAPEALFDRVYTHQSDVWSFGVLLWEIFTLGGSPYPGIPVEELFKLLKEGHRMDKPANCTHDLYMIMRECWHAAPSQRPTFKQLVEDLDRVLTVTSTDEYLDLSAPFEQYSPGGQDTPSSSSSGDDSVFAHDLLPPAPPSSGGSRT
Chain of Fibroblast growth factor receptor 3 (Homo sapiens), P22607 [G697C] (P22607 whole entry G697C): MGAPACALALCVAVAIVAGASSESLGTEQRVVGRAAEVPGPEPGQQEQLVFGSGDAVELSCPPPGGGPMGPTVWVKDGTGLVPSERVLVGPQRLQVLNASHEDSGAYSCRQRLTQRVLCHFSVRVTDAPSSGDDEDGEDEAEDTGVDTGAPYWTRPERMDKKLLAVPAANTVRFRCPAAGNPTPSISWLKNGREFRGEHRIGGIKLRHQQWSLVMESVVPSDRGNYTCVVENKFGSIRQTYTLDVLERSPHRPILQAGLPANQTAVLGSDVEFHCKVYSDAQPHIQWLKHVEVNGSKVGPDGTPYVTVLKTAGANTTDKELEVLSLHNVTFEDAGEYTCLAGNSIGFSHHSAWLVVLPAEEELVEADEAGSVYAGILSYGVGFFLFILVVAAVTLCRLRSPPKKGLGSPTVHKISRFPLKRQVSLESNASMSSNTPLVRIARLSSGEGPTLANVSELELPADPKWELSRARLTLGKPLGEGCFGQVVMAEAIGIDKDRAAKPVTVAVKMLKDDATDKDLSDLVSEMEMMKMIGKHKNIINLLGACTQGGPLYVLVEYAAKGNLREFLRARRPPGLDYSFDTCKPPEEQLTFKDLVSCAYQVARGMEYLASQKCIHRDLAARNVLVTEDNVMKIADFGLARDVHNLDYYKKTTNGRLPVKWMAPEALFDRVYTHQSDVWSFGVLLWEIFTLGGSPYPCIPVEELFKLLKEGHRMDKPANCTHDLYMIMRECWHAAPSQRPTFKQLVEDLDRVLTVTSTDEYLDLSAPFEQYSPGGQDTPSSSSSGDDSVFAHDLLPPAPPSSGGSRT
Chain of Proto-oncogene tyrosine-protein kinase Src (P12931 2-536 limits assumed): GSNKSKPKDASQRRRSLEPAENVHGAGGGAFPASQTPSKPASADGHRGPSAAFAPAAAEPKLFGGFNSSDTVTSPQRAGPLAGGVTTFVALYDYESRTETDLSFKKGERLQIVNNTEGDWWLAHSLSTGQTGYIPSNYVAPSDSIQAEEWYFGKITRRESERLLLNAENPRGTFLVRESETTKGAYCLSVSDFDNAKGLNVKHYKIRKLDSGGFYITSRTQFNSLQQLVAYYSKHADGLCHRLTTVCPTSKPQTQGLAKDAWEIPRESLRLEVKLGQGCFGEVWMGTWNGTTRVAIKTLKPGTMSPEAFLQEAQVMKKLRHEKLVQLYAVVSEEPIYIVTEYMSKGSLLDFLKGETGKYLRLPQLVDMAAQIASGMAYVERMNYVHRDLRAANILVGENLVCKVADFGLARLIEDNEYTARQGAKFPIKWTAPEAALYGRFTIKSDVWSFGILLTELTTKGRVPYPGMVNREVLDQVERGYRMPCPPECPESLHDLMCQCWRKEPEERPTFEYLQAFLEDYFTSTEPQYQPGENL
Chain of Interferon-induced, double-stranded RNA-activated protein kinase (Homo sapiens) (P19525 whole entry): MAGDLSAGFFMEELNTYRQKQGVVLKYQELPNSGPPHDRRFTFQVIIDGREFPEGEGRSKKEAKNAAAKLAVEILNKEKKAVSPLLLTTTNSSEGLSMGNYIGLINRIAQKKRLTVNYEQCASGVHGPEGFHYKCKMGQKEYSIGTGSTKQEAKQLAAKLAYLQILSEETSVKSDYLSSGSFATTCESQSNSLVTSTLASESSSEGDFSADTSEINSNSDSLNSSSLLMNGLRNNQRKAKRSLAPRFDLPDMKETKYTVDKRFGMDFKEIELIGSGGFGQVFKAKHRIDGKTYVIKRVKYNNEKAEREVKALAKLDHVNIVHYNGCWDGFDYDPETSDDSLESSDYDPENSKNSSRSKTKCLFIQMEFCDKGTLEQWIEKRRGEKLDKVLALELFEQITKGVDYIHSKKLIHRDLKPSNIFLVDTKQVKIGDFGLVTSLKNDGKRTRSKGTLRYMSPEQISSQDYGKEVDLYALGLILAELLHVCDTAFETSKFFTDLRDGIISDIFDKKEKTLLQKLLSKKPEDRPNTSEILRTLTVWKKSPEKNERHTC
Chain of Epidermal growth factor receptor (Homo sapiens), P00533 [UNDEFINED MUTATION] (P00533 whole entry, looked up, change not shown): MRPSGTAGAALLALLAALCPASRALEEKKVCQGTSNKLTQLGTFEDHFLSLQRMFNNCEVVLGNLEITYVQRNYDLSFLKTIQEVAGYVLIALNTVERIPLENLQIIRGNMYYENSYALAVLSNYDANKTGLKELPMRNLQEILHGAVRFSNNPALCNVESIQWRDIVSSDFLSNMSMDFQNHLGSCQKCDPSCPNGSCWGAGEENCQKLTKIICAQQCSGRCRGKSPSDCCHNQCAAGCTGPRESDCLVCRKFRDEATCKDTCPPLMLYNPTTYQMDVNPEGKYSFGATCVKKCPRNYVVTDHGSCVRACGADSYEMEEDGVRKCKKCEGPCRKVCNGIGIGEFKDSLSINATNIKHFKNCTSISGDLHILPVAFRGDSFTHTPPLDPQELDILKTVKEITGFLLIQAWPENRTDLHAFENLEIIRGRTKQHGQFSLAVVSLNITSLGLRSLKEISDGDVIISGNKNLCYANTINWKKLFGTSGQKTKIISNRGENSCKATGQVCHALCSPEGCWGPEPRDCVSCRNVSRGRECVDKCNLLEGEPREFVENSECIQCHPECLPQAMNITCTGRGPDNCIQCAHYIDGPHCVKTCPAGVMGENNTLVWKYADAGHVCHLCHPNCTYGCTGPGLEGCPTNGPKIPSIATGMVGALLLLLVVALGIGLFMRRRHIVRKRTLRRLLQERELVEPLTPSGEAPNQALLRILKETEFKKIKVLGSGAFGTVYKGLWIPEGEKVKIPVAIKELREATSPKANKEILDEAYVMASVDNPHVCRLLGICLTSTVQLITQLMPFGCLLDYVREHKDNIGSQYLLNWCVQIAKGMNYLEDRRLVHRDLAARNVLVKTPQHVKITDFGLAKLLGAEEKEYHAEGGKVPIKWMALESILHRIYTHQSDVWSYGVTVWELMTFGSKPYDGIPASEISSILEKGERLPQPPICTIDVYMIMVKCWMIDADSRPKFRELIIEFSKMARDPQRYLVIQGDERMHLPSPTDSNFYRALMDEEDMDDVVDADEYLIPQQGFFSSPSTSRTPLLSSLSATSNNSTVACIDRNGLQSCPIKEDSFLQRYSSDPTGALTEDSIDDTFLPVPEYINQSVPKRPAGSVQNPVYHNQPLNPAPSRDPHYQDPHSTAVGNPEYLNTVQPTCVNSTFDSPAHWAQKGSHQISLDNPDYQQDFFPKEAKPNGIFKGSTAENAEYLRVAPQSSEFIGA
Chain of Serine/threonine-protein kinase 38 (Homo sapiens) (Q15208 2-465 limits assumed): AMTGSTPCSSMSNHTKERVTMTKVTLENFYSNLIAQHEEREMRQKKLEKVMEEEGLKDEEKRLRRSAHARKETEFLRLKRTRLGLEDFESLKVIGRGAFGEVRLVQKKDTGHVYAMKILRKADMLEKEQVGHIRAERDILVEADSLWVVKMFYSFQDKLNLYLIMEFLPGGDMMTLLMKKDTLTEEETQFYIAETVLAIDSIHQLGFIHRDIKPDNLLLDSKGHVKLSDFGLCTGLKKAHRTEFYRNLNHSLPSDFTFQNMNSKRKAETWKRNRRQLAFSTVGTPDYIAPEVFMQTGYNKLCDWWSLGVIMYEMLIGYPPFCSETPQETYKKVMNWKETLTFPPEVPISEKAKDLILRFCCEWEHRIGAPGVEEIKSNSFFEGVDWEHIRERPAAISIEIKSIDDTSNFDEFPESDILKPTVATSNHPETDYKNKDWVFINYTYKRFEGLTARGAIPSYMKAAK

Compound `Cc1cc([C@@H](C)Nc2ccccc2C(=O)O)c2nc(N3CCOCC3)cc(=O)n2c1` [AZD-6482] has a % of control [1] of 61%.
`CN(C)C/C=C/C(=O)Nc1ccc(C(=O)N2CCCC(Nc3ncc(Cl)c(-c4c[nH]c5ccccc45)n3)C2)cc1` (stereo not drawn) gave a % of control [2] of 90% and a % of control [3] of 100%.
`COc1cc(N(C)c2ccnc3ccc(C(F)(F)F)cc23)cc(OC)c1OC` showed a % binding [4] of 100% and a % binding [5] of 90%.
Work on `Nc1cnc(N2CCc3cc(S(=O)(=O)Nc4c(F)cc(Cl)cc4F)cc(N4CCCC4=O)c32)nc1` [TP-020n] yielded a % of control [6] of 99%.
Compound `C=CC(=O)Nc1cccc(C(=O)Nc2ccc(Nc3cc(-c4[nH]c(SC)nc4C)ccn3)cc2)c1` has a % of control [7] of 86%.
For `CCC(=O)N1CCN(c2ccc(-n3c(=O)ccc4cnc5ccc(-c6cnc7ccccc7c6)cc5c43)cc2C(F)(F)F)CC1`, the % of control [8] was 100%.
`CN(C)CCOc1ccc(-c2nc(-c3ccncc3)c(-c3ccc4c(c3)CC/C4=N\O)[nH]2)cc1` gave a % of control [9] of 82% and a % of control [10] of 61%.
For `N#Cc1cccc(-c2c[nH]c3ncnc(N4CCOCC4)c23)c1`, the % of control [11] was 73%.
`CNC(=O)Nc1ccc(-c2nc(N3CC4CCC(C3)O4)c3cnn(C4CCC5(CC4)OCCO5)c3n2)cc1` gave a % of control [12] of 100%.
Compound `O=C(NOC[C@H](O)CO)c1ccc(F)c(F)c1Nc1ccc(I)cc1F` has a % of control [13] of 64%.
